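Protocol summary: plate cells (96-well), add compound at 5 concentrations, incubate 48 h, interpolate endpoints linearly. At the TGI there is no net growth.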
Legend:
Assay in all cases: growth of human tumour cells (NCI), 48 h
COLO 205 colon = tested on: COLO 205 colon
DLD-1 colon = tested on: DLD-1 colon
U251 CNS = tested on: U251 CNS
786-0 renal = tested on: 786-0 renal
NCI-H460 lung = tested on: NCI-H460 lung
UO-31 renal = tested on: UO-31 renal
HCT-116 colon = tested on: HCT-116 colon
RPMI-8226 leukemia = tested on: RPMI-8226 leukemia
LOX IMVI melanoma = tested on: LOX IMVI melanoma
HL-60(TB) leukemia = tested on: HL-60(TB) leukemia
TK-10 renal = tested on: TK-10 renal
M19-MEL melanoma = tested on: M19-MEL melanoma
SK-MEL-5 melanoma = tested on: SK-MEL-5 melanoma
OVCAR-3 ovarian = tested on: OVCAR-3 ovarian
A549 NSCLC = tested on: A549 NSCLC
K-562 leukemia = tested on: K-562 leukemia
SF-539 CNS = tested on: SF-539 CNS
RXF 393 renal = tested on: RXF 393 renal
SK-MEL-28 melanoma = tested on: SK-MEL-28 melanoma
HT29 colon = tested on: HT29 colon
SF-295 CNS = tested on: SF-295 CNS
NCI-H23 lung = tested on: NCI-H23 lung
SNB-78 CNS = tested on: SNB-78 CNS
EKVX NSCLC = tested on: EKVX NSCLC
ACHN renal = tested on: ACHN renal
HOP-92 NSCLC = tested on: HOP-92 NSCLC
SK-MEL-2 melanoma = tested on: SK-MEL-2 melanoma
RXF-631 renal = tested on: RXF-631 renal
DMS 273 small cell lung = tested on: DMS 273 small cell lung
A498 renal = tested on: A498 renal
HCC-2998 colon = tested on: HCC-2998 colon
SK-OV-3 ovarian = tested on: SK-OV-3 ovarian
MOLT-4 leukemia = tested on: MOLT-4 leukemia
HOP-18 NSCLC = tested on: HOP-18 NSCLC
OVCAR-8 ovarian = tested on: OVCAR-8 ovarian
UACC-62 melanoma = tested on: UACC-62 melanoma
HCT-15 colon = tested on: HCT-15 colon
SN12C renal = tested on: SN12C renal
OVCAR-4 ovarian = tested on: OVCAR-4 ovarian
SNB-75 CNS = tested on: SNB-75 CNS
M14 melanoma = tested on: M14 melanoma
SW-620 colon = tested on: SW-620 colon
KM12 colon = tested on: KM12 colon
SNB-19 CNS = tested on: SNB-19 CNS
OVCAR-5 ovarian = tested on: OVCAR-5 ovarian
SF-268 CNS = tested on: SF-268 CNS
UACC-257 melanoma = tested on: UACC-257 melanoma
NCI-H522 lung = tested on: NCI-H522 lung
IGROV1 ovarian = tested on: IGROV1 ovarian
CCRF-CEM leukemia = tested on: CCRF-CEM leukemia
HOP-62 NSCLC = tested on: HOP-62 NSCLC
KM20L2 colon = tested on: KM20L2 colon
CAKI-1 renal = tested on: CAKI-1 renal
MALME-3M melanoma = tested on: MALME-3M melanoma
NCI-H226 lung = tested on: NCI-H226 lung

Measured: TGI

O=C(CCCCCCCCC(=O)OCCCn1cc(C(=O)NC(=O)OCc2ccccc2)c(=O)[nH]c1=O)OCCCn1cc(C(=O)NC(=O)OCc2ccccc2)c(=O)[nH]c1=O
> 100 µM: all assays above
